Source: patent publication US20150315188A1, “COMPOUNDS AND METHODS FOR TREATMENT OF HYPERTENSION” (MEDIVATION TECHNOLOGIES, INC., priority 2012, published 2015)

biological target: T1, Human adrenergic α2B receptor (Homo sapiens, UniProt P18089); experiment: Radioligand binding, adrenergic α2B (Protocol Group B); parameters: purchased Milipore (Millipore); conditions: 10 nM compound; Protocol Group B; 0.01 µM
T1 sequence (P18089 1-450): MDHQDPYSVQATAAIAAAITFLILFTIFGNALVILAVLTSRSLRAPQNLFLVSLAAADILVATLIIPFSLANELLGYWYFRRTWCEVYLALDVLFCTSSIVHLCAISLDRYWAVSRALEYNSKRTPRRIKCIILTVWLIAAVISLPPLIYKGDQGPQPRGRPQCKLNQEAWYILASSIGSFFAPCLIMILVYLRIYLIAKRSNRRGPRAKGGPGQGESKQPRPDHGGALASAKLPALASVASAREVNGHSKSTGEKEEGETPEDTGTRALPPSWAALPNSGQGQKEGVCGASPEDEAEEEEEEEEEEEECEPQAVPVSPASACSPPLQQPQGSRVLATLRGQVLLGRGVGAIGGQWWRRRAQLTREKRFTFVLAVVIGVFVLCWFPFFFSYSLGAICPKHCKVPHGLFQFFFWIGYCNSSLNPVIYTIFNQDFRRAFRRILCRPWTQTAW
Protocol: To evaluate the activity of compounds in radioligand binding assays, Human adrenergic α2B receptor obtained from recombinant cell membrane from Milipore. Binding experiments were carried out in Tris-HCl buffer (50 mM Tris-HCl buffer, pH 7.4, 5 mM Mgcl2, 1 mM Cacl2, 0.2% BSA) as recommended by Milipore. […] Non-specific binding was estimated in the presence of 10 μM Rauwolscine. […] Compounds were screened at various concentrations, using 1% DMSO as vehicle. Biochemical assay results are presented as the percent Inhibition of specific binding in Table B1b, or estimated Ki values in Table B1c.

**Q.** `Cc1cc(F)c2c(c1)c1c(n2CC(C)(O)c2cccnc2)CC2CCCN2C1` (single isomer, unassigned) [61d] was tested. Which “Percentage inhibition of ligand binding, Adrenergic α2B (10 nM)” value did it give?
**A.** 0%

same assay, conditions: 10 nM compound; Protocol Group B; read-out: Percentage inhibition of ligand binding, Adrenergic α2B (10 nM)

**Q.** For `Cc1cc(F)cc2c3c(n(CC(C)(O)c4cccnc4)c12)CCN1CCCC31` (stereo not shown) [75b], which inhibition at 0.01 µM is on record?
**A.** -10%

same assay, conditions: 30 nM compound; Protocol Group B; 0.03 µM

**Q.** For `CN1CCc2c(c3cc(CCO)ccc3n2CC(C)(O)c2cccnc2)C1` (single isomer, unassigned) [139b], which “Percentage inhibition of ligand binding, Adrenergic α2B (30 nM)” value (“Percentage inhibition … (30 nM)” below) is on record?
**A.** 3%

**Q.** With `Cc1cc(F)c2c(c1)c1c(n2CC(C)(O)c2cccnc2)CC2CCCN2C1` (single isomer, unassigned) [61d] as the compound, how does the “Percentage inhibition … (30 nM)” value read?
**A.** 11%

**Q.** For `Cc1ccc2c(c1)c1c(n2CC(OCC2CCC2)c2ccncc2)CCN2CCCC12` (single isomer, unassigned) [138c], which “Percentage inhibition … (30 nM)” value is on record?
**A.** −9%

same assay, conditions: 30 nM compound; Protocol Group B; read-out: Percentage inhibition of ligand binding, Adrenergic α2B (30 nM)

**Q.** Which inhibition at 0.03 µM does the source give for `Cc1cc(F)cc2c3c(n(CC(C)(O)c4cccnc4)c12)CCN1CCCC31` (stereo not shown) [75b] here?
**A.** -4%

same assay, conditions: 0.1 μM compound; Protocol Group B; 0.1 µM

**Q.** How did the “Percentage inhibition of ligand binding, Adrenergic α2B (0.1 μM)” value turn out when `Cc1cc(F)c2c(c1)c1c(n2CC(C)(O)c2cccnc2)CC2CCCN2C1` (single isomer, unassigned) [61d] was run?
**A.** 23%

same assay, conditions: 0.1 μM compound; Protocol Group B; read-out: Percentage inhibition of ligand binding, Adrenergic α2B (0.1 μM)

**Q.** `Cc1cc(F)cc2c3c(n(CC(C)(O)c4cccnc4)c12)CCN1CCCC31` (stereo not shown) [75b] was tested. Which inhibition at 0.1 µM did it give?
**A.** -1%

same assay, conditions: Ki α2B, Protocol Group B; estimated Ki

**Q.** With `Cc1ccc2c(c1)c1c(n2CC(C)(O)c2cccnc2)CC2CCC1N2C` (single isomer, unassigned) [101a] as the compound, how does the Ki read?
**A.** 16.2 nM

same assay, conditions: read-out: Percentage inhibition of ligand binding, Adrenergic α2B (10 nM), 10 nM compound; Protocol Group B

**Q.** How did the inhibition at 0.01 µM turn out when `Cc1ccc2c(c1)c1c(n2CC(C)(O)c2cccnc2)CC2CCC1N2C` (single isomer, unassigned) [101a] was run?
**A.** 23%

same assay, conditions: read-out: Percentage inhibition of ligand binding, Adrenergic α2B (30 nM), 30 nM compound; Protocol Group B

**Q.** Which inhibition at 0.03 µM does the source give for `Cc1ccc2c(c1)c1c(n2CC(C)(O)c2cccnc2)CC2CCC1N2C` (single isomer, unassigned) [101a] here?
**A.** 38%

same assay, conditions: read-out: Percentage inhibition of ligand binding, Adrenergic α2B (0.1 μM), 0.1 μM compound; Protocol Group B

**Q.** Which inhibition at 0.1 µM does the source give for `Cc1ccc2c(c1)c1c(n2CC(C)(O)c2cccnc2)CC2CCC1N2C` (single isomer, unassigned) [101a] here?
**A.** 71%

biological target: T2, Human adrenergic α2A receptor (Homo sapiens, UniProt P08913); experiment: Radioligand binding, adrenergic α2A (Protocol Group B); parameters: purchased Milipore (Millipore); conditions: 0.1 μM compound; Protocol Group B; 0.1 µM
T2 sequence (P08913 1-465): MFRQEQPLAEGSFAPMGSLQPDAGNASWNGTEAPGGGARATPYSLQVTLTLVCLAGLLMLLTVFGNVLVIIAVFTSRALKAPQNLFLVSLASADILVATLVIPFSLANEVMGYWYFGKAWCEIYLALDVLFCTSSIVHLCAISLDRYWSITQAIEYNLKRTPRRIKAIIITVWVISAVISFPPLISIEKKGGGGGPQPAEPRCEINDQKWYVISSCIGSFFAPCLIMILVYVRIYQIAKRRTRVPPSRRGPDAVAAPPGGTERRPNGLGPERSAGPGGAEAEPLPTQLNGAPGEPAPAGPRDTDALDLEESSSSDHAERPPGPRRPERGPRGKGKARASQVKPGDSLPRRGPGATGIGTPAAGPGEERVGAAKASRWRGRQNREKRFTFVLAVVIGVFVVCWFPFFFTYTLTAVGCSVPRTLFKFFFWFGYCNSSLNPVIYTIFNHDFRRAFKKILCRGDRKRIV
Protocol: To evaluate the activity of compounds in radioligand binding assays, Human adrenergic α2A receptor obtained from recombinant cell membrane from Milipore. Binding experiments were carried out in Tris-HCl buffer (50 mM Tris-HCl buffer, pH 7.4, 5 mM Mgcl2, 1 mM Cacl2, 0.2% BSA) as recommended by Milipore. Compounds were incubated with 2 nM [^3H]MK-912 for 60 min at 25° C. Non-specific binding was estimated in the presence of 10 μM Rauwolscine. Receptor proteins were harvested on 0.33% PEI(poly-ethylenemine) soaked GFC filter mat, the specifically bound [^3H]MK-912 were counted to determine total binding. Compounds were screened at various concentrations, using 1% DMSO as vehicle. percent inhibition of specific binding was determined. Biochemical assay results are presented as the percent Inhibition of specific binding in Table B1b, or estimated Ki values in Table B1c.

**Q.** With `CN1CCc2c(c3cc(CCO)ccc3n2CC(C)(O)c2cccnc2)C1` (single isomer, unassigned) [139b] as the compound, how does the “Percentage inhibition of ligand binding, Adrenergic α2A (0.1 μM)” value read?
**A.** 0%

**Q.** Which “Percentage inhibition of ligand binding, Adrenergic α2A (0.1 μM)” value does the source give for `Cc1cc(F)c2c(c1)c1c(n2CC(C)(O)c2cccnc2)CC2CCCN2C1` (single isomer, unassigned) [61d] here?
**A.** −10%

**Q.** For `Cc1ccc2c(c1)c1c(n2CC(OCC2CCC2)c2ccncc2)CCN2CCCC12` (single isomer, unassigned) [138c], which “Percentage inhibition of ligand binding, Adrenergic α2A (0.1 μM)” value is on record?
**A.** 0%

same assay, conditions: 0.1 μM compound; Protocol Group B; read-out: Percentage inhibition of ligand binding, Adrenergic α2A (0.1 μM)

**Q.** How did the inhibition at 0.1 µM turn out when `Cc1cc(F)cc2c3c(n(CC(C)(O)c4cccnc4)c12)CCN1CCCC31` (stereo not shown) [75b] was run?
**A.** -3%

**Q.** How did the inhibition at 0.1 µM turn out when `Cc1ccc2c(c1)c1c(n2CC(C)(O)c2cccnc2)CC2CCC1N2C` (single isomer, unassigned) [101a] was run?
**A.** 7%

same assay, conditions: 0.3 μM compound; Protocol Group B; 0.3 µM

**Q.** How did the “Percentage inhibition of ligand binding, Adrenergic α2A (0.3 μM)” value turn out when `Cc1cc(F)c2c(c1)c1c(n2CC(C)(O)c2cccnc2)CC2CCCN2C1` (single isomer, unassigned) [61d] was run?
**A.** −4%

same assay, conditions: 0.3 μM compound; Protocol Group B; read-out: Percentage inhibition of ligand binding, Adrenergic α2A (0.3 μM)

**Q.** Which inhibition at 0.3 µM does the source give for `Cc1cc(F)cc2c3c(n(CC(C)(O)c4cccnc4)c12)CCN1CCCC31` (stereo not shown) [75b] here?
**A.** 5%

**Q.** Which inhibition at 0.3 µM does the source give for `Cc1ccc2c(c1)c1c(n2CC(C)(O)c2cccnc2)CC2CCC1N2C` (single isomer, unassigned) [101a] here?
**A.** 21%

biological target: T3, Human adrenergic α1B receptor (Homo sapiens, UniProt P35368); experiment: Radioligand binding, adrenergic α1B (Protocol Group B); parameters: purchased Milipore (Millipore); conditions: 0.1 μM compound; Protocol Group B; 0.1 µM
T3 sequence (P35368 1-520): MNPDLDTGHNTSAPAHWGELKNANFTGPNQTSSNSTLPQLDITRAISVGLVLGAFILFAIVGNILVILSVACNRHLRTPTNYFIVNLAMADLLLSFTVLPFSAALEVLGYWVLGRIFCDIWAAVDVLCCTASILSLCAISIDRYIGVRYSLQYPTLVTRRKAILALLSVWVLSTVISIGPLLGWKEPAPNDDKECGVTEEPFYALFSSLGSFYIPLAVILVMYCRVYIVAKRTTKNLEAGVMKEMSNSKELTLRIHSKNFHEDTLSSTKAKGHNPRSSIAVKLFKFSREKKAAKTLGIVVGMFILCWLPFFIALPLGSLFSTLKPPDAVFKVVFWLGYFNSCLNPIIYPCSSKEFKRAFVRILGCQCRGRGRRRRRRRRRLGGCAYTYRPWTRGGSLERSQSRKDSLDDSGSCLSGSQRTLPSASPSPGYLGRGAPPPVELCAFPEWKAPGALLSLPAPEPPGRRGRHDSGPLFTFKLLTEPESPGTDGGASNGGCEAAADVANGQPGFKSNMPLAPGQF
Protocol: To evaluate the activity of compounds in radioligand binding assays, Human adrenergic α1B receptor obtained from recombinant cell membrane from Milipore. Binding experiments were carried out in Tris-HCl buffer (50 mM Tris-HCl buffer, pH 7.4, 10 mM Mgcl2, 1 mM EDTA) as recommended by Milipore. Compounds were incubated with 0.3 nM [^3H]Prazosin for 60 min at 25° C. Non-specific binding was estimated in the presence of 10 μM prazosin. Receptor proteins were harvested on 0.33% PEI(poly-ethylenemine) soaked GFC filter mat, the specifically bound [^3H]Prazosin were counted to determine total binding. Compounds were screened at various concentrations, using 1% DMSO as vehicle. percent inhibition of specific binding was determined. Biochemical assay results are presented as the percent Inhibition of specific binding in Table B1b, or estimated Ki values in Table B1c.

**Q.** `CN1CCc2c(c3cc(CCO)ccc3n2CC(C)(O)c2cccnc2)C1` (single isomer, unassigned) [139b] was tested. Which “Percentage inhibition of ligand binding, Adrenergic α1B (0.1 μM)” value did it give?
**A.** 1%

**Q.** How did the “Percentage inhibition of ligand binding, Adrenergic α1B (0.1 μM)” value turn out when `Cc1cc(F)c2c(c1)c1c(n2CC(C)(O)c2cccnc2)CC2CCCN2C1` (single isomer, unassigned) [61d] was run?
**A.** 0%

**Q.** With `Cc1ccc2c(c1)c1c(n2CC(OCC2CCC2)c2ccncc2)CCN2CCCC12` (single isomer, unassigned) [138c] as the compound, how does the “Percentage inhibition of ligand binding, Adrenergic α1B (0.1 μM)” value read?
**A.** 4%

same assay, conditions: 0.1 μM compound; Protocol Group B; read-out: Percentage inhibition of ligand binding, Adrenergic α1B (0.1 μM)

**Q.** `Cc1cc(F)cc2c3c(n(CC(C)(O)c4cccnc4)c12)CCN1CCCC31` (stereo not shown) [75b] was tested. Which inhibition at 0.1 µM did it give?
**A.** -1%

**Q.** How did the inhibition at 0.1 µM turn out when `Cc1ccc2c(c1)c1c(n2CC(C)(O)c2cccnc2)CC2CCC1N2C` (single isomer, unassigned) [101a] was run?
**A.** 6%

same assay, conditions: 0.3 μM compound; Protocol Group B; 0.3 µM

**Q.** For `Cc1cc(F)c2c(c1)c1c(n2CC(C)(O)c2cccnc2)CC2CCCN2C1` (single isomer, unassigned) [61d], which “Percentage inhibition of ligand binding, Adrenergic α1B (0.3 μM)” value is on record?
**A.** 1%

same assay, conditions: 0.3 μM compound; Protocol Group B; read-out: Percentage inhibition of ligand binding, Adrenergic α1B (0.3 μM)

**Q.** With `Cc1cc(F)cc2c3c(n(CC(C)(O)c4cccnc4)c12)CCN1CCCC31` (stereo not shown) [75b] as the compound, how does the inhibition at 0.3 µM read?
**A.** 1%

**Q.** `Cc1ccc2c(c1)c1c(n2CC(C)(O)c2cccnc2)CC2CCC1N2C` (single isomer, unassigned) [101a] was tested. Which inhibition at 0.3 µM did it give?
**A.** 17%
